One test concerns the target T1, STAT6 (Homo sapiens, UniProt P42226).
T1 construct: These cells express endogenous STAT6; host or cells: HeLa LgBiT clone 4.14 (CRISPR knock-in of HiBiT into the endogenous STAT6 gene)
T1 sequence (P42226 1-847): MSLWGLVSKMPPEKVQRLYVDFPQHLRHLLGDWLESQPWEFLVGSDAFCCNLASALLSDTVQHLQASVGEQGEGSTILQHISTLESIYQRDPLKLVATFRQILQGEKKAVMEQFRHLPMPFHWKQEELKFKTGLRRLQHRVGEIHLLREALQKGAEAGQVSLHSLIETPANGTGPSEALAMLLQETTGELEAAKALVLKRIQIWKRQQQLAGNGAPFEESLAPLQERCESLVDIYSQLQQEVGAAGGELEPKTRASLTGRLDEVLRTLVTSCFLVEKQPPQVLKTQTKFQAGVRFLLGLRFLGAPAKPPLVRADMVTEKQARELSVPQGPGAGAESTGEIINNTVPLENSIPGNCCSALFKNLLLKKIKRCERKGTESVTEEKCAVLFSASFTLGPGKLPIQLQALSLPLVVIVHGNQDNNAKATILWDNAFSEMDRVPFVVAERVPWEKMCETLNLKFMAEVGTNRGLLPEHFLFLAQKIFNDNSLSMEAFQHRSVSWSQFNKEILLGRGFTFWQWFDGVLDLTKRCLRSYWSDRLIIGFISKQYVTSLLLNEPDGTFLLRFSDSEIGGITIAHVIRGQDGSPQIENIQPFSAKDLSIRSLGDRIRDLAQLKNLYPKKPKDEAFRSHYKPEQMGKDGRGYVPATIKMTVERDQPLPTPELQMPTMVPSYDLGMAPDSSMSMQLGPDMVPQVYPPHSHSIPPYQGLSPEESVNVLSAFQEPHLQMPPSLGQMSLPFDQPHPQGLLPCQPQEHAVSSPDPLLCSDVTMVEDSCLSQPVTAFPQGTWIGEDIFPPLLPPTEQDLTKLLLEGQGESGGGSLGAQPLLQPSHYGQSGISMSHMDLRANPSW
The test can be described thus: STAT6 Degrader Assay (HiBiT based, HeLa LgBiT clone 4.14 cells). In kind it is cell-based. Particulars: for DC50: geometric mean across assay runs and compound batches, DC50 provided for test compounds with >80% Emax, read-out: STAT6 degradation DC50; for Emax: HeLa, maximal STAT6 degradation. Summed up:
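DC50 (nM) comes from NanoBiT luminescence of HiBiT-knock-in STAT6 in HeLa LgBiT clone 4.14 cells, treated 4-24 h at 37° C. Luminescence reflects non-degraded STAT6, with 50 μM terfenadine wells taken as full degradation.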

For test [1], the system named is Eotaxin-3 (CCL26) release. The test can be described thus: Human Whole Blood Eotaxin-3 Assay (IL-4 stimulated). Type of test: cell-based. Conditions: Homo sapiens; geometric mean across assay runs and compound batches; EC50 provided for test compounds with >80% Emax. Summed up:
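Lithium-heparin human whole blood preincubated 2 h at 37 °C with compounds (4-fold dilutions, triplicate, 0.5% DMSO final). Then stimulated with 400 pM final recombinant human IL-4 for 48 h. Eotaxin-3 in supernatant quantified by MSD immunoassay.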

`CNc1ccn(-c2ccnc3c2cc([C@H](C)N2CC=C(c4c(C)cc(C(=O)N5CCC(CN6CCN(c7ncc(NC8CCC(=O)NC8=O)cc7F)C[C@@H]6C)CC5)cc4F)CC2)n3C)c(=O)c1` (stereo partly drawn) [Example 2g94, 3-((5-fluoro-6-((S)-4-((1-(3-fluoro-5-methyl-4-(1-((S)-1-(1-methyl-4-(4-(methyl-amino)-2-oxopyridin-1(2H)-yl)-1H-pyrrolo[2,3-b]pyridin-2-yl)ethyl)-1,2,3,6-tetrahydro-pyridin-4-yl)benzoyl)piperi-din-4-yl)methyl)-3-methyl-piperazin-1-yl)pyridin-3-yl)-amino)piperidine-2,6-dione]: the DC50 on STAT6 worked out at 6.6 nM. Moreover, in test [1], the response was half-maximal at 23.6 nM (EC50).
On to `CNc1cc(=O)n(-c2ccnc3c2cc([C@H](C)N2CC=C(c4c(C)cc(C(=O)N5CCn6nc(CN7CCC(c8ccc(N[C@H]9CCC(=O)NC9=O)cc8F)CC7)cc6C5)cc4F)CC2)n3C)cc1F` (single isomer, unassigned) [Example 2g6], for which the DC50 on STAT6 was 0.3 nM. The EC50 in test [1] is 1.5 nM.
The matching figures for `CNc1ccn(-c2ccnc3c2cc([C@H](C)N2CCC(c4c(F)cc(C(=O)N5CCn6nc(CN7CCC(c8ccc(NC9CCC(=O)NC9=O)cc8F)CC7)cc6C5)cc4F)CC2)n3C)c(=O)c1` (stereo partly drawn) [Example 2g109, 3-((4-(1-((5-(3,5-difluoro-4-(1-((S)-1-(1-methyl-4-(4-(methylamino)-2-oxopyridin-1(2H)-yl)-1H-pyrrolo[2,3-b]pyridin-2-yl)ethyl)piperidin-4-yl)benzoyl)-4,5,6,7-tetra-hydropyrazolo[1,5-a]pyrazin-2-yl)methyl)piperidin-4-yl)-3-fluorophenyl)amino)piperi-dine-2,6-dione]: 0.4 nM and 0.3 nM.
Regarding `Cn1c(CN2CCC(c3c(F)cc(C(=O)N4CCC(CN5CCN(c6ccc(NC7CCC(=O)NC7=O)cc6F)CC5)CC4)cc3F)CC2)cc2c(-n3ccc4c(c3=O)CCN4)ccnc21` (stereo not shown) [Example 2g35, 3-((4-(4-((1-(3,5-difluoro-4-(1-((1-methyl-4-(4-oxo-1,2,3,4-tetrahydro-5H-pyrrolo [3,2-c]pyridin-5-yl)-1H-pyrrolo[2,3-b]pyridin-2-yl)-methyl)piperidin-4-yl)benzo-yl)piperidin-4-yl)methyl)-piperazin-1-yl)-3-fluorophen-yl)-amino)piperidine-2,6-dione], on STAT6, the DC50 amounted to 16 nM. Also, the midpoint of the response in test [1], the EC50, lay at 73.2 nM.
For `Cc1cc(C(=O)N2CCC(CN3CCN(c4ccc(NC5CCC(=O)NC5=O)cc4F)CC3)CC2)cc(F)c1C1=CCN([C@@H](C)c2cc3c(-n4ccc5c(c4=O)CCN5)ccnc3n2C)CC1` (stereo partly drawn) [Example 2g18, 3-((3-fluoro-4-(4-((1-(3-fluoro-5-methyl-4-(1-((S)-1-(1-methyl-4-(4-oxo-1,2,3,4-tetrahydro-5H-pyrrolo[3,2-c]pyridin-5-yl)-1H-pyrrolo[2,3-b]pyridin-2-yl)ethyl)-1,2,3,6-tetrahydropyridin-4-yl)benzo-yl)piperidin-4-yl)methyl)-piperazin-1-yl)phenyl)amino)-piperidine-2,6-dione], on STAT6, the DC50 worked out at 3.1 nM. In addition, in test [1], the EC50 is 5.5 nM.
Compound `C[C@@H](c1cc2c(-n3ccc4c(c3=O)CCN4)ccnc2n1C)N1CCC(c2ccc(C(=O)N3CCC(CN4CCN(c5ccc(NC6CCC(=O)NC6=O)cc5F)CC4)CC3)cc2)CC1` (stereo partly drawn) [Example 2c29, 3-((3-fluoro-4-(4-((1-(4-(1-((S)-1-(1-methyl-4-(4-oxo-1,2,3,4-tetrahydro-5H-pyr-rolo[3,2-c]pyridin-5-yl)-1H-pyrrolo[2,3-b]pyridin-2-yl)-ethyl)piperidin-4-yl)benzoyl)-piperidin-4-yl)methyl)piper-azin-1-yl)phenyl)amino)piper-idine-2,6-dione] had an Emax at STAT6 of 70 to 80%. Besides, in test [1], the EC50 is 15.7 nM.
As for `CNc1ccn(-c2ccnc3c2cc([C@H](C)N2CC=C(c4c(C)cc(C(=O)N5CCn6nc(CN7CCC(c8ccc(NC9CCC(=O)NC9=O)c(OC)c8)CC7)c(Cl)c6C5)cc4F)CC2)n3C)c(=O)c1` (stereo partly drawn) [Example 2g52, 3-((4-(1-((3-chloro-5-(3-fluoro-5-methyl-4-(1-((S)-1-(1-methyl-4-(4-(methyl-amino)-2-oxopyridin-1(2H)-yl)-1H-pyrrolo[2,3-b]pyridin-2-yl)ethyl)-1,2,3,6-tetrahydro-pyridin-4-yl)benzoyl)-4,5,6,7-tetrahydropyrazolo[1,5-a]pyrazin-2-yl)methyl)piperi-din-4-yl)-2-methoxyphenyl)-amino)piperidine-2,6-dione], at STAT6, the half-maximal degradation concentration (DC50) turned out to be 0.8 nM. The same compound came in with an EC50 in test [1] of 0.3 nM.
With `CNc1ccn(-c2ccnc3c2cc(CN2CCC(c4c(F)cc(C(=O)N5CCn6nc(CN7CCC(c8ccc(N[C@@H]9CCC(=O)NC9=O)cc8F)CC7)cc6C5)cc4F)CC2)n3C)c(=O)c1` (single isomer, unassigned) [Example 2g102], the DC50 on STAT6 is 1.5 nM. Further, the EC50 in test [1] turned out to be 0.8 nM.
In the case of `CNc1ccn(-c2ccnc3c2cc(CN2CCC(c4c(F)cc(C(=O)N5CCC(CN6CCN(c7ccc(NC8CCC(=O)NC8=O)cc7F)CC6)CC5)cc4F)CC2)n3C)c(=O)c1` (stereo not shown) [Example 2g107, 3-((4-(4-((1-(3,5-difluoro-4-(1-((1-methyl-4-(4-(methyl-amino)-2-oxopyridin-1(2H)-yl)-1H-pyrrolo[2,3-b]pyridin-2-yl)methyl)piperidin-4-yl)-benzoyl)piperidin-4-yl)meth-yl)piperazin-1-yl)-3-fluoro-phenyl)amino)piperidine-2,6-dione], the DC50 at STAT6 turned out to be 25.3 nM. In test [1], this compound gave an EC50 of 26.8 nM.
`CNc1ccn(-c2ccnc3c2cc([C@H](C)N2CC=C(c4c(C)cc(C(=O)N5CCC(CN6CCN(Cc7ccc(NC8CCC(=O)NC8=O)c(F)c7)CC6)CC5)cc4F)CC2)n3C)c(=O)c1` (stereo partly drawn) [Example 2g10, 3-((2-fluoro-4-((4-((1-(3-fluoro-5-methyl-4-(1-((S)-1-(1-methyl-4-(4-(methyl-amino)-2-oxopyridin-1(2H)-yl)-1H-pyrrolo[2,3-b]pyridin-2-yl)ethyl)-1,2,3,6-tetrahydro-pyridin-4-yl)benzoyl)-piper-idin-4-yl)methyl)piperazin-1-yl)methyl)phenyl)amino)-piperidine-2,6-dione]: on STAT6, the DC50 came out at 11.4 nM. The compound further had a concentration for a half-maximal effect (EC50) in test [1] of 19.2 nM.
For the compound `CNc1ccn(-c2ccnc3c2cc([C@H](C)N2CCC(c4ccc(C(=O)N5CCC(CN6CCN(c7ccc(NC8CCC(=O)NC8=O)cc7F)CC6)CC5)cc4)CC2)n3C)c(=O)c1` (stereo partly drawn) [Example 2c31, 3-((3-fluoro-4-(4-((1-(4-(1-((S)-1-(1-methyl-4-(4-(meth-ylamino)-2-oxopyridin-1(2H)-yl)-1H-pyrrolo[2,3-b]pyridin-2-yl)ethyl)piperidin-4-yl)-benzoyl)piperidin-4-yl)meth-yl)piperzin-1-yl)phenyl)-amino)-piperidine-2,6-dione], at STAT6, the maximum response (Emax) fell in the range of 70 to 80%. This compound also registered an EC50 in test [1] of 22.5 nM.
Take `CNc1ccn(-c2ccnc3c2cc([C@H](C)N2CC=C(c4c(C)cc(C(=O)N5CCC(CN6CCN(c7ncc(N[C@H]8CCC(=O)NC8=O)cc7F)C[C@H]6C)CC5)cc4F)CC2)n3C)c(=O)c1` (single isomer, unassigned) [Example 2g114]: at STAT6, the DC50 is 5.8 nM. In test [1], this compound showed an EC50 of 6.5 nM.
As to `CNc1ccn(-c2ccnc3c2cc([C@H](C)N2CC=C(c4c(C)cc(C(=O)N5CCn6nc(CN7CCC(c8ccc(NC9CCC(=O)NC9=O)c(OC)c8)CC7)cc6C5)cc4F)CC2)n3C)c(=O)c1` (stereo partly drawn) [Example 2g116, 3-((4-(1-((5-(3-fluoro-5-meth-yl-4-(1-((S)-1-(1-methyl-4-(4-(methylamino)-2-oxopyridin-1(2H)-yl)-1H-pyrrolo[2,3-b]pyridin-2-yl)ethyl)-1,2,3,6-tetrahydropyridin-4-yl)benzo-yl)-4,5,6,7-tetrahydropyrazolo [1,5-a]pyrazin-2-l)methyl)-piperidin-4-yl)-2-methoxy-phenyl)amino)-piperidine-2,6-dione], the DC50 on STAT6 came to 0.3 nM. Moreover, in test [1], the EC50 is 0.5 nM.
On to `CNc1cc(=O)n(-c2ccnc3c2cc([C@H](C)N2CC=C(c4c(C)cc(C(=O)N5CCn6nc(CN7CCC(c8ccc(N[C@H]9CCC(=O)NC9=O)c(OC)c8)CC7)cc6C5)cc4F)CC2)n3C)cc1F` (single isomer, unassigned) [Example 2g11], for which, at STAT6, the DC50 amounted to 1 nM. Besides, the EC50 in test [1] turned out to be 1.7 nM.

For the origin of these results see patent publication US20250320205A1, “STAT6 DEGRADERS” (Gilead Sciences, Inc., priority 2024, published 2025).
